Assay results as given in paper PMC10349806 (Nature Communications, 2023).
Several values for one entry are separate records, joined by “and”; a condition that tells them apart may be missing. Equal entries are not always repeated.

Target: PfCRT^Dd2 (Plasmodium falciparum, UniProt Q9N623, A220S/I356T/K76T/M74I/N326S/N75E/Q271E/R371I)
Test: Drug uptake assay, X. laevis oocytes expressing PfCRT^Dd2
Format: cell-based
Details: for v-1 pH 4.5 / v-1 pH 5.0 / v-1 pH 5.5 / v-1 pH 6.0: Lineweaver-Burk
Procedure: Oocytes were obtained as described previously. Briefly, adult (>2 years old) female X. laevis frogs (NASCO) were anesthetized in a cooled solution of ethyl 3-amino benzoate methanesulfonate (0.1%, w/v), followed by a surgical removal of parts of the ovary. The ovary lobes were carefully dissected and small pieces of oocytes were incubated in Ca^2+-free ND96 buffer (96 mM NaCl, 2 mM KCl, 1 mM MgCl2 buffered with 5 mM HEPES/NaOH, pH 7.5) supplemented with collagenase D (0.1%, w/v; Roche), BSA (0.5%, w/v), and 9 mm Na2HPO4 at 18 °C for 14-16 h while gentle shaking. After incubation, the oocytes were carefully washed several times with ND96 buffer (96 mM NaCl, 2 mM KCl, 1.8 mM CaCl2, 1 mM MgCl2 buffered with 5 mM HEPES/NaOH, pH 7.5) supplemented with 100 mg l^−1 gentamycin). Defolliculated and healthy-looking stage V-VI oocytes were manually selected for RNA microinjection. The RNA was generated as following: The codon-optimized sequences of PfCRT variants were cloned into the pSP64T expression vector. After vector linearization using the restriction endonucleases BamHI or SalI (New England Biolabs), transcription was performed using the in vitro SP6 mMessage mMachine Kit (Ambion)[34]. The obtained RNA was kept at −80 °C and diluted with nuclease-free water to a concentration of 0.6 μg μl^−1. Precision-bore glass capillary tubes (3.5-inch glass capillaries; Drummond Scientific Co.) were pulled on a vertical puller (P-87 Flaming/Brown micropipette puller, Sutter Instrument Co.), graduated, and placed on a microinjector (Nanoject II Auto-Nanoliter Injector, Drummond Scientific Co.). 50 nl of nuclease-free water alone (control oocytes) or 50 nl of 0.6 μg μl^−1 RNA were injected under stereomicroscopic control. Injected oocytes were incubated for 46–72 h at 18 °C with twice-daily buffer changes before usage in experiments.
Drug uptake assays were performed as described previously[21],[22],[24],[34]. […] The direction of radio-labeled drug transport is here from the mostly acidic extracellular solution (pH 4.5 or 6.0, as indicated) into the oocyte cytosol (pH ∼ 7.2), which corresponds to the efflux of drug from the acidic digestive vacuole (pH 5.2) into the parasite cytoplasm (pH 7.2). The topology of PfCRT in the oolemma is such that both the N- and C-terminus face the extracellular milieu[3],[22]. In the parasite, the N- and C-terminus face the lumen of the digestive vacuole. […] For determination of the amount of drug uptake for each oocyte, the reaction medium was removed and the oocytes were washed three times with 2 ml of ice-cold ND96 buffer. Each oocyte was individually transferred to a scintillation vial containing 5% sodium dodecyl sulfate (200 μl) for lysis. […] Oocytes that were injected with water instead of RNA were analyzed in parallel, representing the uptake of a drug by diffusion and/or endogenous permeation pathways. The resulting value represents the “background“ level of drug accumulation in oocytes (in-depth discussion in[22]). The specific PfCRT-mediated uptake was determined by subtracting the corresponding background value measured in water-injected oocytes from that of PfCRT-expressing oocytes. In all cases, at least three separate experiments were performed on oocytes from different frogs (biological replicate), and for each condition in an experiment, measurements were made from 10 oocytes per treatment. For pH 5.5, 6.0, and 6.5, ND96 was buffered with 5 mM MES/Tris base. For pH 4.5, 5 mM Homo-Pipes was used as a buffer and 5 mM HEPES for uptake at pH 7.0.

PfCRT^Dd2, sequence (Q9N623 whole entry A220S/I356T/K76T/M74I/N326S/N75E/Q271E/R371I): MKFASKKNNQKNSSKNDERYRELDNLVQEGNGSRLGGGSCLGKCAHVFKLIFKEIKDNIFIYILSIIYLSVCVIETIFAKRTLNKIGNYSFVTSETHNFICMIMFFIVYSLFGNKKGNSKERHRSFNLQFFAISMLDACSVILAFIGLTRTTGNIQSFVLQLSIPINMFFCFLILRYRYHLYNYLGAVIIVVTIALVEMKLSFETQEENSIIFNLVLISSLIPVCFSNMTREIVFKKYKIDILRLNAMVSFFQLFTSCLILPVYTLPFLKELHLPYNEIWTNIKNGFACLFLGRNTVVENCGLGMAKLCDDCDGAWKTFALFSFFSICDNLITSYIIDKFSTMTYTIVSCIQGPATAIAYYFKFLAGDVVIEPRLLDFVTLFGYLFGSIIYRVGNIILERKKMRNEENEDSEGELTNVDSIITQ

In the case of `CCN(CC)CCCC(C)Nc1ccnc2cc(Cl)ccc12` (centres unmarked) [CQ, chloroquine], the “PfCRTDd2-mediated CQ transport activity” value (300 µM CQ, time 90 min) is reported as 21.08 pmol oocyte-1, the “v-1 pH 4.5” value (300 µM CQ) is reported as 0.11 (pmol oocyte-1 h-1)-1 and the “v-1 pH 5.0” value (300 µM CQ) is reported as 0.09 (pmol oocyte-1 h-1)-1. The “v-1 pH 5.5” value (300 µM CQ) was 0.08 (pmol oocyte-1 h-1)-1, the “v-1 pH 6.0” value (300 µM CQ) was 0.0649 (pmol oocyte-1 h-1)-1 and the PfCRTDd2 transport activity (400 µM CQ, pH 4.5, 60 min) was 9.19 pmol oocyte-1 h-1 and 9.21 pmol oocyte-1 h-1 and 9.15 pmol oocyte-1 h-1 and 10.13 pmol oocyte-1 h-1 and 7.52 pmol oocyte-1 h-1 and 9.96 pmol oocyte-1 h-1. The PfCRTDd2 transport activity (400 µM CQ, pH 5.0, 60 min) was 11.32 pmol oocyte-1 h-1, the “PfCRTDd2 transport activity 400 µM CQ pH 5.0” value (400 µM CQ, pH 5.0, individual replicates (Fig 4a)) was 11.40 pmol oocyte-1 h-1 and 11.89 pmol oocyte-1 h-1 and 10.67 pmol oocyte-1 h-1 and the PfCRTDd2 transport activity (400 µM CQ, pH 5.5, 60 min) was 13.77 pmol oocyte-1 h-1. For the same compound, the “PfCRTDd2 transport activity 400 µM CQ pH 5.5” value (400 µM CQ, pH 5.5, individual replicates (Fig 4a)) was 14.89 pmol oocyte-1 h-1 and 13.71 pmol oocyte-1 h-1 and 13.31 pmol oocyte-1 h-1, the PfCRTDd2 transport activity (400 µM CQ, pH 6.0, 60 min) was 19.62 pmol oocyte-1 h-1 and 19.38 pmol oocyte-1 h-1 and 19.10 pmol oocyte-1 h-1 and 20.37 pmol oocyte-1 h-1 and the “PfCRTDd2 transport activity 400 µM CQ pH 6.0” value (400 µM CQ, pH 6.0, individual replicates (Fig 4a)) was 19.38 pmol oocyte-1 h-1 and 19.10 pmol oocyte-1 h-1 and 20.37 pmol oocyte-1 h-1. For the same compound, the “PfCRTDd2-mediated CQ transport activity” value (400 µM CQ, time 0 min) was 0.00 pmol oocyte-1, the “PfCRTDd2-mediated CQ transport activity” value (400 µM CQ, time 30 min) was 11.37 pmol oocyte-1 and the “PfCRTDd2-mediated CQ transport activity” value (400 µM CQ, time 60 min) was 18.93 pmol oocyte-1. The “PfCRTDd2-mediated CQ transport activity” value (400 µM CQ, time 90 min) was 23.37 pmol oocyte-1, the “v-1 pH 4.5” value (400 µM CQ) was 0.11 (pmol oocyte-1 h-1)-1 and the “v-1 pH 5.0” value (400 µM CQ) was 0.09 (pmol oocyte-1 h-1)-1. The “v-1 pH 5.5” value (400 µM CQ) was 0.07 (pmol oocyte-1 h-1)-1, the “v-1 pH 6.0” value (400 µM CQ) was 0.05 (pmol oocyte-1 h-1)-1 and the PfCRTDd2 transport activity (500 µM CQ, pH 4.5, 60 min) was 9.38 pmol oocyte-1 h-1 and 9.85 pmol oocyte-1 h-1 and 9.73 pmol oocyte-1 h-1 and 10.40 pmol oocyte-1 h-1 and 7.53 pmol oocyte-1 h-1. The “PfCRTDd2 transport activity 500 µM CQ pH 4.5” value (500 µM CQ, pH 4.5, individual replicates (Fig 4a)) was 9.85 pmol oocyte-1 h-1 and 9.73 pmol oocyte-1 h-1 and 10.40 pmol oocyte-1 h-1 and 7.53 pmol oocyte-1 h-1, the PfCRTDd2 transport activity (500 µM CQ, pH 5.0, 60 min) was 11.35 pmol oocyte-1 h-1 and the “PfCRTDd2 transport activity 500 µM CQ pH 5.0” value (500 µM CQ, pH 5.0, individual replicates (Fig 4a)) was 12.28 pmol oocyte-1 h-1. For the same compound, the PfCRTDd2 transport activity (500 µM CQ, pH 5.5, 60 min) was 14.75 pmol oocyte-1 h-1, the “PfCRTDd2 transport activity 500 µM CQ pH 5.5” value (500 µM CQ, pH 5.5, individual replicates (Fig 4a)) was 14.32 pmol oocyte-1 h-1 and 15.56 pmol oocyte-1 h-1 and 14.38 pmol oocyte-1 h-1 and 14.75 pmol oocyte-1 h-1 and the PfCRTDd2 transport activity (500 µM CQ, pH 6.0, 60 min) was 20.73 pmol oocyte-1 h-1 and 20.81 pmol oocyte-1 h-1 and 20.59 pmol oocyte-1 h-1 and 20.78 pmol oocyte-1 h-1. For the same compound, the “PfCRTDd2 transport activity 500 µM CQ pH 6.0” value (500 µM CQ, pH 6.0, individual replicates (Fig 4a)) was 20.81 pmol oocyte-1 h-1 and 20.59 pmol oocyte-1 h-1 and 20.78 pmol oocyte-1 h-1, the “PfCRTDd2-mediated CQ transport activity” value (500 µM CQ, time 0 min) was 0.00 pmol oocyte-1 and the “PfCRTDd2-mediated CQ transport activity” value (500 µM CQ, time 30 min) was 18.55 pmol oocyte-1. The “PfCRTDd2-mediated CQ transport activity” value (500 µM CQ, time 60 min) was 25.91 pmol oocyte-1, the “PfCRTDd2-mediated CQ transport activity” value (500 µM CQ, time 90 min) was 27.18 pmol oocyte-1 and the “v-1 pH 4.5” value (500 µM CQ) was 0.11 (pmol oocyte-1 h-1)-1. For the same compound, the “v-1 pH 5.0” value (500 µM CQ) was 0.09 (pmol oocyte-1 h-1)-1 and the “v-1 pH 5.5” value (500 µM CQ) was 0.07 (pmol oocyte-1 h-1)-1.
